How the values were obtained:
Format in all cases: cell-based
K-562 = experiment: In vitro human tumor cell line cytotoxicity assay; conditions: K562, read-out: RelIC50
MOLT-4 = experiment: In vitro human tumor cell line cytotoxicity assay; conditions: read-out: RelIC50
KYSE 70 = experiment: In vitro human tumor cell line cytotoxicity assay; conditions: read-out: RelIC50
T.T = experiment: In vitro human tumor cell line cytotoxicity assay; conditions: TT, read-out: RelIC50
Jurkat, Clone E6-1 = experiment: In vitro human tumor cell line cytotoxicity assay; conditions: read-out: RelIC50
KYSE = experiment: In vitro human tumor cell line cytotoxicity assay; conditions: read-out: RelIC50
Mono-Mac-6_ = experiment: In vitro human tumor cell line cytotoxicity assay; conditions: read-out: RelIC50
Method: (§1) TH 2870, TH 3423 and TH 3424 was also tested in different cancer cell lines using the materials and procedures as follows. 10* cell lysate buffer (cell signaling technology, Cat. No.9803); Protease Inhibitor Cocktail for Mammalian Tissues (Sigma, Cat. No.P8340); Phosphatase Inhibitor Cocktails for Serine/Threonine Phosphatases and L-Isozymes of Alkaline Phosphatases (Sigma, Cat. No.P0044); Phosphatase Inhibitor Cocktails for Tyrosine Protein Phosphatases, Acid and Alkaline Phosphatases (Sigma, Cat. No.P5726); BCA kit (Thermo, Cat. No.23225); Primary antibody, mouse monoclonal AKR1C3 antibody (clone NP6.G6.A6; Sigma-Aldrich); Primary antibody, α-tubulin (clone B-5-1-2; Sigma-Aldrich); Secondary antibody, Goat-anti-Mouse IgG HRP conjugated (A4416; Sigma-Aldrich) were used. Cells were passaged two generations in good condition and digested. The appropriate number of cells were inoculated in 6-cm cell culture dishes, and incubated at 37°C, 5% CO2 overnight. When the cells were grown to 80% density, the dish was removed from incubator. The medium was aspirated, washed twice with ice-cold PBS, and residual PBS was removed. An appropriate volume of ice-cold 1* cell lysate was added and incubated on ice for 10 minutes. Cell lysate was transferred to microfuge tubes chilled in ice, 4 °C, 12,000 rpm and centrifuged for 15 minutes. Supernatant was transferred into another microcentrifuge tube. Cell lysates were diluted by a 10* cell lysates, and add Protease Inhibitor Cocktail for Mammalian Tissues (Sigma, # P8340), Phosphatase Inhibitor Cocktails for Serine / Threonine Phosphatases and L-Isozymes of Alkaline Phosphatases, Phosphatase Inhibitor Cocktails for Tyrosine Protein Phosphatases, Acid and Alkaline Phosphatases. The BCA protein quantification kit for protein quantification was used with 1* cell lysate to dilute the cell lysate to the same concentration. Corresponding samples were added on 5* SDS-loading buffer, heated to 85 °C for 10 minutes, and centrifuged briefly. The samples were saved at -20 °C or used directly for protein electrophoresis. Those samples were electrophoresed according to standard practice, transferred to a membrane, the primary antibodies and then secondary antibody were applied according to the manufacturer's instructions. Odyssey infrared laser imaging system was used to scan signals.
(§2) The results are shown below in Figs. 3 and 4 and listed in the following tables: Table: TH 2870, TH 3423 and TH 3424 sensitivity in liver, prostate, esophageal cancer and leukemia cell lines

ATN-1 = experiment: In vitro human tumor cell line cytotoxicity assay; conditions: read-out: RelIC50
Method: as §1, §2

KYSE 510 = experiment: In vitro human tumor cell line cytotoxicity assay; conditions: read-out: RelIC50
Method: as §1, §2

HL-60 = experiment: In vitro human tumor cell line cytotoxicity assay; conditions: read-out: RelIC50
Method: as §1, §2

TE-5 = experiment: In vitro human tumor cell line cytotoxicity assay; conditions: read-out: RelIC50
Method: as §1, §2

OE 33 = experiment: In vitro human tumor cell line cytotoxicity assay; conditions: OE33, read-out: RelIC50
Method: as §1, §2

PF-382 = experiment: In vitro human tumor cell line cytotoxicity assay; conditions: read-out: RelIC50
Method: as §1, §2

THP-1_ = experiment: In vitro human tumor cell line cytotoxicity assay; conditions: read-out: RelIC50
Method: as §1, §2

Reh 3 = experiment: In vitro human tumor cell line cytotoxicity assay; conditions: read-out: RelIC50
Method: as §1, §2

TE-11 = experiment: In vitro human tumor cell line cytotoxicity assay; conditions: read-out: RelIC50
Method: as §1, §2

SUP-T1 = experiment: In vitro human tumor cell line cytotoxicity assay; conditions: read-out: RelIC50
Method: as §1, §2

TE-15 = experiment: In vitro human tumor cell line cytotoxicity assay; conditions: read-out: RelIC50
Method: as §1, §2

P116 = experiment: In vitro human tumor cell line cytotoxicity assay; conditions: read-out: RelIC50
Method: as §1, §2

CCRF-CEM = experiment: In vitro human tumor cell line cytotoxicity assay; conditions: read-out: RelIC50
Method: as §1, §2

OE 21 = experiment: In vitro human tumor cell line cytotoxicity assay; conditions: OE21, read-out: RelIC50
ECa-109 = experiment: In vitro human tumor cell line cytotoxicity assay; conditions: read-out: RelIC50
TE-4 = experiment: In vitro human tumor cell line cytotoxicity assay; conditions: read-out: RelIC50
TE-14 = experiment: In vitro human tumor cell line cytotoxicity assay; conditions: read-out: RelIC50
H460 cells = experiment: In vitro proliferation assay, H460; conditions: Homo sapiens, NCI-H460; 2 hrs exposure, wash, additional 70hrs, AlamarBlue; read-out: IC 50 in proliferation assay in H460 cells
Method: In vitro proliferation data on the H460 […] human tumor cell line is reported above in the compound table. IC50 values are reported in micromolar and result from exposure of compound at various concentrations for 2 hrs followed by a wash step and addition of fresh media followed by growth and cell viability staining and comparison to a media only treated control.
Specifically, exponentially growing cells were seeded at a density of 4 x 10^3 cells per well in a 96 well plate and incubated at 37°C in 5% CO2, 95% air and 100% relative humidity for 24 hours prior to addition of test compounds. Compounds were solubilized in 100% DMSO at 200 times the desired final test concentration. At the time of drug addition, compounds were further diluted to 4 times the desired final concentration with complete medium. Aliquots of 50 µl of compound at specified concentrations were added to microtiter wells already containing 150 µl of medium, resulting in the final drug concentration reported. After drug addition, the plates were incubated for an additional 2 hours at 37°C, 5% CO2, 95% air, and 100% relative humidity, then the drug was washed off and fresh medium was added and the plates were incubated for addition 70hrs at 37 °C, 5% CO2, 95% air and 100% relative humidity. At the end of this incubation, the viable cells were quantified using the AlamarBlue assay. The drug concentration resulting in growth inhibition of 50% (IC50) was calculated using Prism software (Irvine, CA), and the results were listed in the table.

P30/OHK = experiment: In vitro human tumor cell line cytotoxicity assay; conditions: read-out: RelIC50

C[C@H](OP(=O)(N1CC1)N1CC1)c1ccc([N+](=O)[O-])c(Oc2cccc(C(=O)N(C)C)c2)c1 (single isomer, unassigned) [TH3424]
IC50 (K-562): > 1000 nM
IC50 (MOLT-4): 10 nM
IC50 (KYSE 70): 33 nM
IC50 (T.T): 6 nM
IC50 (Jurkat, Clone E6-1): 24 nM
IC50 (KYSE): 11 nM
IC50 (Mono-Mac-6_): > 1000 nM
IC50 (ATN-1): 29.8 nM
IC50 (KYSE 510): 180 nM
IC50 (HL-60): 3 nM
IC50 (TE-5): 33 nM
IC50 (OE 33): 84 nM
IC50 (PF-382): 15 nM
IC50 (THP-1_): > 1000 nM
IC50 (Reh 3): 3 nM
IC50 (TE-11): 2.7 nM
IC50 (SUP-T1): 3 nM
IC50 (TE-15): 2.9 nM
IC50 (P116): 84 nM
IC50 (CCRF-CEM): 3.7 nM
IC50 (OE 21): 5.2 nM
IC50 (ECa-109): 17 nM
IC50 (TE-4): 9.9 nM
IC50 (TE-14): 4.7 nM
IC50 (H460 cells): 4 nM
IC50 (P30/OHK): > 1000 nM
